{
  "source": "patent US20240108740A1",
  "about": "“THERAPEUTIC COMPOSITIONS INCLUDING SPN10 AND USES THEREOF” (Stealth BioTherapeutics Inc., priority 2022, published 2024)",
  "key": {"[1]": {"system": "Sprague-Dawley rats", "assay": "Example 5: unilateral ureteral obstruction (UUO), 14 days", "format": "in vivo, rat", "experimental": "UUO will be induced in Sprague-Dawley rats. The rats will be treated with saline (i.p., n=6), peptide conjugates (1 mg/kg i.p., n=6), aromatic-cationic peptides (e.g., an equivalent molar dose of aromatic-cationic peptide based on the concentration of the aromatic-cationic peptide administered in the peptide conjugate treatment group), SPN10(s) (e.g., an equivalent molar dose of SPN10 based on the concentration of SPN10 administered in the peptide conjugate treatment group), or SPN10(s) in combination with aromatic-cationic peptides (e.g., an equivalent molar dose of SPN10 based on the concentration of SPN10 administered in the peptide conjugate treatment group and an equivalent molar dose of aromatic-cationic peptide based on the concentration of aromatic-cationic peptide administered in the peptide conjugate treatment group) one day prior to induction of UUO, and once daily for 14 days after UUO induction. Rats will be sacrificed and the kidneys removed, embedded in paraffin, and sectioned. The sections will be treated with an anti-CD36 polyclonal IgG (Santa Cruz, sc-9154; diluted 1:100 with blocking serum) at room temperature for 1.5 hours. The slides will then be incubated with the second antibody conjugated with biotin (anti-rabbit IgG-B1; ABC kit, PK-6101) at room temperature for 30 min. The slides will then be treated with avidin, developed with DAB and counterstained with 10% hematoxylin. The contralateral unobstructed kidney will serve as the control for each animal.\nRats will then be sacrificed, kidneys removed, embedded in paraffin and sectioned. Slides will be incubated with anti-HNE rabbit IgG and a biotin-linked anti-rabbit IgG will be used as secondary antibody. The slides will be developed with DAB. Lipid peroxidation, which is increased by UUO, is anticipated to be reduced by treatment with peptide conjugates, aromatic-cationic peptides, or SPN10(s) (with or without aromatic-cationic peptides).\nRats will then be sacrificed, kidneys removed, embedded in paraffin and sectioned. To quantify nuclei with fragmented DNA, TUNEL assay will be performed with in situ TUNEL kit. Slides will be developed with DAB and counterstained with 10% hematoxylin. […] It is anticipated that there will be a significant increase in apoptotic cells observed in the obstructed kidney from saline-treated animals when compared to the contralateral unobstructed control.\nMacrophage infiltration and interstitial fibrosis are anticipated to be prevented by treatment with peptide conjugates, aromatic-cationic peptides, or SPN10(s) (alone or in combination with aromatic-cationic peptides). Rats will be treated with either saline (n=6), peptide conjugates (1 mg/kg i.p., n=6), aromatic-cationic peptides (e.g., an equivalent molar dose of aromatic-cationic peptide based on the concentration of the aromatic-cationic peptide administered in the peptide conjugate treatment group), SPN10(s) (e.g., an equivalent molar dose of SPN10 based on the concentration of SPN10 administered in the peptide conjugate treatment group) or SPN10(s) in combination with aromatic-cationic peptides (e.g., an equivalent molar dose of SPN10 based on the concentration of SPN10 administered in the peptide conjugate treatment group and an equivalent molar dose of aromatic-cationic peptide based on the concentration of aromatic-cationic peptide administered in the peptide conjugate treatment group) one day prior to induction of UUO, and once daily for 14 days after UUO. Rats will then be sacrificed, the kidneys removed, embedded in paraffin and sectioned. Slides will be treated with monoclonal antibody for ED1 macrophage (1:75; Serotec). Horseradish peroxidase-linked rabbit anti-mouse secondary antibody (Dako) will be used for macrophage detection. Sections will then be counterstained with 10% hematoxylin. […]"}, "[2]": {"system": "Wild-type (WT) mice", "assay": "Example 2: acute cerebral ischemia (occlusion of the right middle cerebral artery)", "format": "in vivo, mouse", "experimental": "Cerebral ischemia will be induced by occlusion of the right middle cerebral artery for 30 min. Wild-type (WT) mice will be given either saline vehicle (Veh) (i.p., n=9), peptide conjugates (2 mg/kg or 5 mg/kg, i.p., n=6), aromatic-cationic peptides (e.g., an equivalent molar dose of aromatic-cationic peptide based on the concentration of the aromatic-cationic peptide administered in the peptide conjugate treatment group), SPN10(s) (e.g., an equivalent molar dose of SPN10 based on the concentration of SPN10 administered in the peptide conjugate treatment group), or SPN10(s) in combination with aromatic-cationic peptides (e.g., an equivalent molar dose of SPN10 based on the concentration of SPN10 administered in the peptide conjugate treatment group and an equivalent molar dose of aromatic-cationic peptide based on the concentration of aromatic-cationic peptide administered in the peptide conjugate treatment group) at 0, 6, 24 and 48 hours after ischemia. Mice will be sacrificed 3 days after ischemia. Brains will be frozen, sectioned, and stained using Nissl stain. Infarct volume and hemispheric swelling will be determined using an image analyzer. Data will be analyzed by one-way ANOVA with posthoc analysis."}},
  "note": "Residues, ends and D or L forms follow the SMILES beside them.",
  "data": [
    {"smiles": "N=C(N)NCCC[C@H](NC(=O)[C@@H](N)Cc1c[nH]c2ccccc12)C(=O)N[C@@H](Cc1c[nH]c2ccccc12)C(=O)N[C@@H](CCCCN)C(N)=O", "note": "[SPN10, H-L-Trp-L-Arg-L-Trp-L-Lys-NH2] (H-WRWK-NH2)", "values": [
      {"measurement": "CD36 expression in tubular cells after UUO", "setting": "[1]; anti-CD36 immunostaining", "result": "significant reduction in CD36 expression"},
      {"measurement": "HNE staining in obstructed kidney", "setting": "[1]; compared to saline-treated rats", "result": "significantly less HNE staining"},
      {"measurement": "tubular dilation after UUO", "setting": "[1]; one day prior to UUO and once daily for 14 days", "result": "Tubular dilation is also anticipated"},
      {"measurement": "interstitial fibrosis in obstructed kidney (Masson's trichrome)", "setting": "[1]; rat, in vivo", "result": "significantly less fibrosis"},
      {"measurement": "lipid peroxidation in kidney after UUO", "setting": "[1]; rat, in vivo", "result": "reduced"},
      {"measurement": "macrophage infiltration in obstructed kidney (ED1)", "setting": "[1]; rat, in vivo", "result": "significantly reduced"},
      {"measurement": "number of apoptotic cells in obstructed kidney (TUNEL)", "setting": "[1]; rat, in vivo", "result": "significantly reduced"},
      {"measurement": "up-regulation of CD36 associated with tubular cell apoptosis", "setting": "[1]; rat, in vivo", "result": "significantly inhibited"},
      {"measurement": "depletion of GSH in the ipsilateral cortex", "setting": "[2]; 2 mg/kg i.p. at 0, 6, 24 and 48 hours", "result": "significantly be reduced"},
      {"measurement": "infarct volume and hemispheric swelling", "setting": "[2]; treatment at 0, 6, 24 and 48 hours after 30 minute occlusion, compared to saline", "result": "significant reduction in infarct volume and hemispheric swelling"}
    ]}
  ]
}
